Test results from PubChem BioAssay AID248 (DTP/NCI, 2004).
Values joined by “and” are separate entries in the source; they are usually repeats but may differ in a detail not shown here. Equal entries are not always repeated. Inconclusive results and toxic doses are left out. Cut-off read from the data, not from the text of the source: active = T/C of 150% or more; inactive = T/C below 125%.

System: L1210 leukemia ip in BDF1 mice, survival T/C
Experiment: NCI In Vivo Anticancer Drug Screen. Data for tumor model L1210 Leukemia (intraperitoneal) in B6D2F1 (BDF1) mice
Details: endpoint: mean survival time, higher = longer survival
Outline: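 Transplantable tumor model; survival measured in treated vs vehicle control mice. Value = treated/control.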

[1] = dose: 100.0 mg/kg/injection, schedule: Q01DX001 (ip), vehicle: saline
[2] = dose: 100.0 mg/kg/injection, schedule: Q04DX003 (ip), vehicle: saline
[3] = dose: 200.0 mg/kg/injection, schedule: Q01DX001 (ip), vehicle: saline
[4] = dose: 200.0 mg/kg/injection, schedule: Q01DX009 (ip), vehicle: saline with Tween-80
[5] = dose: 200.0 mg/kg/injection, schedule: Q04DX003 (ip), vehicle: saline
[6] = dose: 400.0 mg/kg/injection, schedule: Q01DX001 (ip), vehicle: saline
[7] = dose: 400.0 mg/kg/injection, schedule: Q01DX009 (ip), vehicle: saline with Tween-80
[8] = dose: 400.0 mg/kg/injection, schedule: Q04DX003 (ip), vehicle: saline
[9] = dose: 100.0 mg/kg/injection, schedule: Q01DX001 (ip), vehicle: carboxymethylcellulose (CMC)
[10] = dose: 200.0 mg/kg/injection, schedule: Q01DX001 (ip), vehicle: carboxymethylcellulose (CMC)
[11] = dose: 400.0 mg/kg/injection, schedule: Q01DX001 (ip), vehicle: carboxymethylcellulose (CMC)
[12] = dose: 75.0 mg/kg/injection, schedule: Q01DX001 (ip), vehicle: saline
[13] = dose: 150.0 mg/kg/injection, schedule: Q01DX001 (ip), vehicle: saline

Measured: T/C

NC(=O)CC(N)C(=O)O (stereo not given)
inactive: [1] 96 % of control | [2] 98 % of control | dose: 200.0 mg/kg/injection, schedule: Q01DX001 (ip), vehicle: other 107 % of control | [3] 97 % of control and 104 % of control | dose: 200.0 mg/kg/injection, schedule: Q01DX009 (ip), vehicle: other 102 % of control | [4] 98 % of control | dose: 200.0 mg/kg/injection, schedule: Q01DX009 (ip), vehicle: saline 97 % of control | dose: 200.0 mg/kg/injection, schedule: Q04DX003 (ip), vehicle: other 102 % of control | [5] 106 % of control and 108 % of control | dose: 400.0 mg/kg/injection, schedule: Q01DX001 (ip), vehicle: other 107 % of control | [6] 98 % of control | dose: 400.0 mg/kg/injection, schedule: Q01DX009 (ip), vehicle: other 94 % of control | [7] 96 % of control | dose: 400.0 mg/kg/injection, schedule: Q01DX009 (ip), vehicle: saline 103 % of control | dose: 400.0 mg/kg/injection, schedule: Q04DX003 (ip), vehicle: other 96 % of control | [8] 106 % of control and 102 % of control | dose: 800.0 mg/kg/injection, schedule: Q01DX001 (ip), vehicle: other 105 % of control | dose: 800.0 mg/kg/injection, schedule: Q01DX001 (ip), vehicle: saline 106 % of control | dose: 800.0 mg/kg/injection, schedule: Q01DX009 (ip), vehicle: other 100 % of control | dose: 800.0 mg/kg/injection, schedule: Q01DX009 (ip), vehicle: saline with Tween-80 101 % of control | dose: 800.0 mg/kg/injection, schedule: Q01DX009 (ip), vehicle: saline 100 % of control | dose: 800.0 mg/kg/injection, schedule: Q04DX003 (ip), vehicle: other 103 % of control | dose: 800.0 mg/kg/injection, schedule: Q04DX003 (ip), vehicle: saline 101 % of control | dose: 1600.0 mg/kg/injection, schedule: Q01DX001 (ip), vehicle: other 112 % of control | dose: 1600.0 mg/kg/injection, schedule: Q01DX001 (ip), vehicle: saline 101 % of control | dose: 1600.0 mg/kg/injection, schedule: Q01DX009 (ip), vehicle: other 103 % of control | dose: 1600.0 mg/kg/injection, schedule: Q01DX009 (ip), vehicle: saline with Tween-80 98 % of control | dose: 1600.0 mg/kg/injection, schedule: Q01DX009 (ip), vehicle: saline 99 % of control | dose: 1600.0 mg/kg/injection, schedule: Q04DX003 (ip), vehicle: other 96 % of control | dose: 1600.0 mg/kg/injection, schedule: Q04DX003 (ip), vehicle: saline 100 % of control

COc1ccc(CCNC(=O)Cc2ccc([N+](=O)[O-])cc2)cc1OC
inactive: [9] 89 % of control | [10] 98 % of control | [11] 93 % of control

CN1CCC=C(CO)C1
inactive: [2] 97 % of control | [5] 107 % of control | [8] 103 % of control

COC1OC(CCl)C(O)C(O)C1O (stereo not given)
inactive: dose: 100.0 mg/kg/injection, schedule: Q04DX002 (ip), vehicle: saline 98 % of control | dose: 100.0 mg/kg/injection, schedule: Q04DX003 (ip), vehicle: saline with Tween-80 93 % of control | dose: 200.0 mg/kg/injection, schedule: Q04DX002 (ip), vehicle: saline 103 % of control | dose: 200.0 mg/kg/injection, schedule: Q04DX003 (ip), vehicle: saline with Tween-80 100 % of control | dose: 400.0 mg/kg/injection, schedule: Q04DX002 (ip), vehicle: saline 106 % of control | dose: 400.0 mg/kg/injection, schedule: Q04DX003 (ip), vehicle: saline with Tween-80 89 % of control

O=C1c2[nH]c3ccccc3c2CC2CC12 (stereo not given)
inactive: [12] 96 % of control | [13] 104 % of control | dose: 300.0 mg/kg/injection, schedule: Q01DX001 (ip), vehicle: saline 101 % of control

CC(=O)Nc1cc(Cl)c(Nc2cc(S(=O)(=O)O)c(N)c3c2C(=O)c2ccccc2C3=O)c(Cl)c1
inactive: [12] 96 % of control | [13] 88 % of control

Nc1n[nH]c(=S)s1
inactive: dose: 46.0 mg/kg/injection, schedule: Q03HX032 (ip), vehicle: Klucel (hydroxypropylcellulose) (HPC) 102 % of control | dose: 70.0 mg/kg/injection, schedule: Q03HX032 (ip), vehicle: Klucel (hydroxypropylcellulose) (HPC) 105 % of control | dose: 100.0 mg/kg/injection, schedule: Q01DX009 (ip), vehicle: Klucel (hydroxypropylcellulose) (HPC) 95 % of control | dose: 105.0 mg/kg/injection, schedule: Q03HX032 (ip), vehicle: Klucel (hydroxypropylcellulose) (HPC) 108 % of control | dose: 158.0 mg/kg/injection, schedule: Q03HX032 (ip), vehicle: Klucel (hydroxypropylcellulose) (HPC) 106 % of control | dose: 183.0 mg/kg/injection, schedule: Q01DX015 (ip), vehicle: Klucel (hydroxypropylcellulose) (HPC) 108 % of control | dose: 200.0 mg/kg/injection, schedule: Q01DX009 (ip), vehicle: Klucel (hydroxypropylcellulose) (HPC) 117 % of control | dose: 236.0 mg/kg/injection, schedule: Q03HX032 (ip), vehicle: Klucel (hydroxypropylcellulose) (HPC) 114 % of control | dose: 264.0 mg/kg/injection, schedule: Q01DX015 (ip), vehicle: Klucel (hydroxypropylcellulose) (HPC) 115 % of control | dose: 394.0 mg/kg/injection, schedule: Q01DX015 (ip), vehicle: Klucel (hydroxypropylcellulose) (HPC) 116 % of control | dose: 440.0 mg/kg/injection, schedule: Q01DX001 (ip), vehicle: Klucel (hydroxypropylcellulose) (HPC) 101 % of control | dose: 670.0 mg/kg/injection, schedule: Q01DX001 (ip), vehicle: Klucel (hydroxypropylcellulose) (HPC) 94 % of control

CC12CCC(O)CC1=CCC1C2CCC2(C)C1CCC2(O)C#CCN(CCCl)CCCl (stereo not given)
inactive: dose: 50.0 mg/kg/injection, schedule: Q04DX003 (sc), vehicle: steriod suspending solution 93 % of control | dose: 100.0 mg/kg/injection, schedule: Q04DX003 (sc), vehicle: steriod suspending solution 112 % of control | dose: 200.0 mg/kg/injection, schedule: Q04DX003 (sc), vehicle: steriod suspending solution 100 % of control | dose: 400.0 mg/kg/injection, schedule: Q04DX003 (sc), vehicle: steriod suspending solution 99 % of control

CCCCCCCCCCCCNC(=O)Nc1ccc(Cl)c(Cl)c1
inactive: [1] 92 % of control | [3] 93 % of control

NC(N)=N/N=C/C(=N/N=C(N)N)c1ccccc1
inactive: dose: 30.0 mg/kg/injection, schedule: Q01DX Z (oral), vehicle: carboxymethylcellulose (CMC) 108 % of control | dose: 60.0 mg/kg/injection, schedule: Q01DX Z (oral), vehicle: carboxymethylcellulose (CMC) 115 % of control | dose: 120.0 mg/kg/injection, schedule: Q01DX Z (oral), vehicle: carboxymethylcellulose (CMC) 105 % of control | dose: 240.0 mg/kg/injection, schedule: Q01DX Z (oral), vehicle: carboxymethylcellulose (CMC) 103 % of control

CC(NP1(=O)OCC(C)(N=Cc2ccccc2)CO1)c1ccccc1 (stereo not given)
inactive: dose: 50.0 mg/kg/injection, schedule: Q01DX001 (ip), vehicle: saline 104 % of control | [1] 98 % of control | [3] 104 % of control | [6] 95 % of control

C/C=C\c1ccc(OCCOC(=O)Nc2cccc(C(F)(F)F)c2)c(OC)c1
inactive: dose: 50.0 mg/kg/injection, schedule: Q01DX009 (ip), vehicle: saline with Tween-80 102 % of control | dose: 100.0 mg/kg/injection, schedule: Q01DX009 (ip), vehicle: saline with Tween-80 98 % of control and 91 % of control | [4] 95 % of control and 90 % of control | [7] 98 % of control

CCCCCCCCCCCCCCCCCC1=Nc2ccccc2NC(=O)C1
inactive: [9] 98 % of control | [10] 98 % of control | [11] 93 % of control
